Counter-ions that a name gives are not always drawn.
Tested on: lean C57BL/6J mice
Assay: In vivo assay for MC4-R antagonist activity: food intake of food deprived lean mice treated with MT II
Conditions: 15 nmol intracerebroventricular prior to MT II 0.05 nmol, six hour period (FIGS. 2, 3)
Experimental: The following in vivo assay was used to test the effects of MC4-R antagonists on mice.
Male lean C57BL/6J mice were individually housed in macrolon cages (22±2 C.°; 12:12 h light/dark cycle with lights off at 6 pm). Tap water and mouse chow diet were given ad libitum. Mice were stereotaxically implanted with a chronic guide cannula aimed to the third ventricle (intracerabroventricular) one week prior to testing.
In this experiment, food deprived lean mice were injected intracerabroventricularly with either Compound N or Compound O, at a dose of 15 nmol prior to injection of MT II at the dose of 0.05 nmol.

SMILES | effect on food intake of mice treated with the MC4-R agonist MT II
COc1ccc([N+](=O)[O-])cc1CSc1ccccc1C1=NCCCN1 [N, 2-[2-(2-Methoxy-5-nitro-benzylsulfanyl)-phenyl]-1,4,5,6-tetrahydro-pyrimidine; hydrobromide] | partially reverses the effect
c1ccc(C2=NCCCN2)c(SCc2cccc3ccccc23)c1 [O, 2-[2-(Naphthalen-1-ylmethylsulfanyl)-phenyl]-1,4,5,6-tetrahydro-pyrimidine; hydrochloride] | did not significantly effect the food intake
